Reference: publication PMC9964244, “Effects of Dimerization, Dendrimerization, and Chirality in p-BthTX-I Peptide Analogs on the Antibacterial Activity and Enzymatic Inhibition of the SARS-CoV-2 PL^pro Protein” (Pharmaceutics, 2023)
In brackets after ≈: the same amount, converted by molar mass. Several values for one entry are separate records, joined by “and”; a condition that tells them apart may be missing. Equal entries are not always repeated. Where two headings read alike, the source gives them in different places. Bridge positions count the residues as written; N and C are the ends. Square brackets hold non-standard residues; d marks the D form. Ends that are not written are not given here. Peptide text beside a SMILES is read from it. I, II: the chains in the order shown.

Tests used:
SARS-CoV-2 = conditions: Vero cells; cited from earlier work
Source text: In December 2019, the first case of viral infection with a new coronavirus was reported in China, which was later named severe acute respiratory syndrome coronavirus 2 (SARS-CoV-2), and the disease caused by this was named coronavirus-2019 or COVID-19 by the WHO. This disease has taken on great proportions, causing a pandemic scenario and great global concern. Even with the improvements in disease control, there is still a need for new, specific antiviral therapeutic options. As antimicrobial peptides also have antiviral action, the L-dimer, D-dimer and L-tetramer, in addition to ...

SARS-CoV-2 PL^pro [1] = molecular target: T1, SARS-CoV-2 PL^pro (Severe acute respiratory syndrome coronavirus 2, UniProt P0DTD1); conditions: PL^pro from SARS-CoV-2, ref 19 (Freire et al., 2021), cited from earlier work; for Inhibition (%) at 10 µM: peptide 10 µM
T1 construct: made in house
Experimental: Table 3 PL^pro activity by peptide analogs of p-BThTX-I at the concentration of 10 μM and IC50 values. Representative concentration–response inhibition curves against PL^pro from SARS-CoV-2 are presented in the Supplementary Material (Figure S7). | column: Inhibition (%) at 10 µM; IC50 μM

P. aeruginosa ATCC 27853 = assay: MIC/MBC, broth microdilution and subculture on CA-MH agar; type: cell-based, Pseudomonas aeruginosa; design: key to Act (antibacterial activity): Bc, bactericidal; Bs, bacteriostatic; conditions: for Act (antibacterial activity): MBC/MIC ratio >4 suggests bacteriostatic; for MIC: broth microdilution; for MIC / MBC: triplicate, mode; for MBC: subculture on CA-MH agar, 37 °C, 24 h
Experimental: (§1) Bacterial isolates from the American Type Culture Collection (ATCC) were obtained from the Collection of Reference Bacteria on Health Surveillance, Oswaldo Cruz Foundation (FIOCRUZ) after phenotypic and molecular quality control and were registered at SISGEN under the number ADB556B. The minimum inhibitory concentration (MIC) was determined as previously described by Santos-Filho et al., 2021 [17], using the broth microdilution method. The MIC was the lowest concentration that inhibited microbial growth. […] MBC was defined as the lowest peptide concentration with no visible growth on the plate. […] The assay was performed in triplicate, and the values represent the mode of the obtained results.
(§2) Thus, to assess the relevance of the antimicrobial effect of p-Bth analogs, their Minimum Inhibitory Concentration (MIC) and Minimum Bactericidal Concentration (MBC) were analyzed against relevant bacteria. The evaluated strains were the Gram-positives: S. aureus ATCC 25923, S. epidermidis ATCC 35984, E. faecalis ATCC 29212, and E. faecium ATCC […] (Table 1); and the Gram-negatives: K. pneumoniae ATCC 700603, E. coli ATCC 25922, A. baumannii ATCC 19606, and P. aeruginosa ATCC 27853 (Table 2).

S. aureus ATCC 25923 = assay: as above; type: cell-based, Staphylococcus aureus; design: key to Act (antibacterial activity): Bc, bactericidal; Bs, bacteriostatic; conditions: for MIC: broth microdilution; for MIC / MBC: triplicate, mode; for MBC: subculture on CA-MH agar, 37 °C, 24 h
Experimental: as §1, §2

[2] = tested on: K. pneumoniae ATCC 700603; assay: as above; type: cell-based, Klebsiella pneumoniae; design: key to Act (antibacterial activity): Bc, bactericidal; Bs, bacteriostatic; conditions: for Act (antibacterial activity): MBC/MIC ratio >4 suggests bacteriostatic; for MIC: broth microdilution; for MIC / MBC: triplicate, mode; for MBC: subculture on CA-MH agar, 37 °C, 24 h
Experimental: as §1, §2

E. faecium ATCC 700221 = assay: as above; type: cell-based, Enterococcus faecium; design: key to Act (antibacterial activity): Bc, bactericidal; Bs, bacteriostatic; conditions: for Act (antibacterial activity): MBC/MIC ratio >4 suggests bacteriostatic; for MIC: broth microdilution; for MIC / MBC: triplicate, mode; for MBC: subculture on CA-MH agar, 37 °C, 24 h
Experimental: as §1, §2

E. faecalis ATCC 29212 = assay: as above; type: cell-based; design: key to Act (antibacterial activity): Bc, bactericidal; Bs, bacteriostatic; conditions: for Act (antibacterial activity): MBC/MIC ratio >4 suggests bacteriostatic; for MIC: broth microdilution; for MIC / MBC: triplicate, mode; for MBC: subculture on CA-MH agar, 37 °C, 24 h
Experimental: as §1, §2

E. coli ATCC 25922 = assay: as above; type: cell-based; design: key to Act (antibacterial activity): Bc, bactericidal; Bs, bacteriostatic; conditions: for Act (antibacterial activity): MBC/MIC ratio >4 suggests bacteriostatic; for MIC: broth microdilution; for MIC / MBC: triplicate, mode; for MBC: subculture on CA-MH agar, 37 °C, 24 h
Experimental: as §1, §2

[3] = tested on: S. epidermidis ATCC 35984; assay: as above; type: cell-based; design: key to Act (antibacterial activity): Bc, bactericidal; Bs, bacteriostatic; conditions: for Act (antibacterial activity): MBC/MIC ratio >4 suggests bacteriostatic; for MIC: broth microdilution; for MIC / MBC: triplicate, mode; for MBC: subculture on CA-MH agar, 37 °C, 24 h
Experimental: as §1, §2

A. baumannii ATCC 19606 = assay: as above; type: cell-based, Acinetobacter baumannii; design: key to Act (antibacterial activity): Bc, bactericidal; Bs, bacteriostatic; conditions: for Act (antibacterial activity): MBC/MIC ratio >4 suggests bacteriostatic; for MIC: broth microdilution; for MIC / MBC: triplicate, mode; for MBC: subculture on CA-MH agar, 37 °C, 24 h
Experimental: as §1, §2

[4] = Carboxyfluorescein leakage, vesicle permeabilization; conditions: 95% POPC / 5% POPG vesicles
Experimental: The permeabilization of lipid vesicles containing carboxyfluorescein was carried out using a spectrofluorometer model Fluorolog-3 FL3-122 from Horiba Jobin Yvon (Newark, NJ, USA) (dimers and tetramers) or in a spectrofluorometer model RF-1501 Shimadzu (Kyoto, Japan) (monomer). For RF-1501, the quantification of the fluorescence intensity was performed every 20 s. Two vesicle compositions were used: (1) 80% 1-palmitoyl-2-oleoyl-sn-glycero-3-phosphoethanolamine (POPE) and 20% 1-palmitoyl-2-oleoyl-sn-glycero- 3-phospho-(10-rac-glycerol) (POPG); and (2) 95% 1-palmitoyl-2-oleoyl-sn-glycero-3-phosphocholine (POPC) and 5% POPG. The percentage of leakage was obtained through the following equation:% release = (Fmeasured − Finitial)/(Ffinal − Finitial) × 100, where Ffinal is the average fluorescence value obtained after the addition of Triton, Finitial is the average of the initial values of the run before the addition of the peptide, and Fmeasured are the fluorescence values obtained at each point of the experiment.
Here, we evaluated two systems of membrane mimetics, including vesicles with a composition of 80% POPE and 20% POPG, and another with 95% POPC and 5% POPG. The first is widely used as a model of bacterial membranes, specifically of E. coli membrane. Membranes constituting POPC and POPG were used to mimic mammalian membranes due to the presence of choline-containing lipids in animal membranes.

SARS-CoV-2 PL^pro [5] = molecular target: T1, SARS-CoV-2 PL^pro; assay: PL^pro enzymatic inhibition assay; type: biochemical; conditions: PL^pro from SARS-CoV-2; for inhibition at 10 µM: peptide 10 µM; for IC50: two independent experiments

Row | Compound | percentage inhibition of SARS-CoV-2 infection (SARS-CoV-2) | Inhibition (%) at 10 µM (SARS-CoV-2 PL^pro [1]) | Act (antibacterial activity) (P. aeruginosa ATCC 27853) | MIC (P. aeruginosa ATCC 27853) | MBC (P. aeruginosa ATCC 27853) | MIC (S. aureus ATCC 25923) | MBC (S. aureus ATCC 25923) | Act (antibacterial activity) [2] | MIC [2] | MBC [2] | MIC (E. faecium ATCC 700221) | MBC (E. faecium ATCC 700221) | MIC (E. faecalis ATCC 29212) | MBC (E. faecalis ATCC 29212) | MIC (E. coli ATCC 25922) | MBC (E. coli ATCC 25922) | MIC [3] | MBC [3] | MIC (A. baumannii ATCC 19606) | MBC (A. baumannii ATCC 19606) | further results
1 | CC(C)C[C@@H](NC(=O)[C@@H](Cc1c[nH]cn1)NC(=O)[C@@H](Cc1ccc(O)cc1)NC(=O)[C@@H](CCCNC(=N)N)NC(=O)[C@@H](Cc1ccc(O)cc1)NC(=O)[C@@H](CCCCN)NC(=O)[C@H](N)CCCCN)C(=O)N[C@H](CCCCN)C(=O)N1CCC[C@@H]1C(=O)N[C@H](Cc1ccccc1)C(=O)NCCCC[C@H](NC(=O)[C@@H](Cc1ccccc1)NC(=O)[C@H]1CCCN1C(=O)[C@@H](CCCCN)NC(=O)[C@@H](CC(C)C)NC(=O)[C@@H](Cc1c[nH]cn1)NC(=O)[C@@H](Cc1ccc(O)cc1)NC(=O)[C@@H](CCCNC(=N)N)NC(=O)[C@@H](Cc1ccc(O)cc1)NC(=O)[C@@H](CCCCN)NC(=O)[C@H](N)CCCCN)C(N)=O [D-dimer] (I: H-[dK][dK][dY][dR][dY][dH][dL][dK][dP][dF]K-NH2 / II: H-[dK][dK][dY][dR][dY][dH][dL][dK][dP][dF]; amide I:11-II:C; N-terminus assumed) | 69% | 96.35 ± 0.91% | Bc | 256 μg/mL and 89 µM | 512 µg/mL (≈ 178 µM) | 256 μg/mL and 89 µM | >512 µg/mL | Bc | 64 μg/mL and 22 µM | 128 µg/mL (≈ 44.6 µM) | 64 μg/mL and 22 µM | >256 µg/mL | 178 µM and 512 μg/mL | 512 µg/mL (≈ 178 µM) | 32 μg/mL and 11 µM | 32 µg/mL (≈ 11.2 µM) | 16 µg/mL | 16 µg/mL (≈ 5.58 µM) | 5 µM (≈ 14.3 µg/mL) | 64 µg/mL (≈ 22.3 µM) | Act (antibacterial activity) (E. faecium ATCC 700221): Bs; Act (antibacterial activity) (E. faecalis ATCC 29212): Bc; Act (antibacterial activity) (E. coli ATCC 25922): Bc; Act (antibacterial activity) [3]: Bc; Act (antibacterial activity) (A. baumannii ATCC 19606): Bc; fluorescein leakage ([4]; concentration not stated in the sentence (10 and 50 µM tested)): 20%; CF leakage ([4]; peptide 50 µM): 20%
2 | CC(C)C[C@@H](NC(=O)[C@@H](Cc1c[nH]cn1)NC(=O)[C@@H](Cc1ccc(O)cc1)NC(=O)[C@@H](CCCNC(=N)N)NC(=O)[C@@H](Cc1ccc(O)cc1)NC(=O)[C@@H](CCCCN)NC(=O)[C@H](N)CCCCN)C(=O)N[C@H](CCCCN)C(=O)N1CCC[C@@H]1C(=O)N[C@H](Cc1ccccc1)C(N)=O [D-monomer] (H-[dK][dK][dY][dR][dY][dH][dL][dK][dP][dF]-NH2) |  |  |  | >371 µM | >512 µg/mL | >371 µM | >512 µg/mL |  | 371 µM (≈ 511 µg/mL) | 512 µg/mL (≈ 371 µM) | >371 µM | >512 µg/mL | >371 µM | >512 µg/mL | 185 µM (≈ 255 µg/mL) | 256 µg/mL (≈ 186 µM) | >371 µM | >512 µg/mL | >371 µM | >512 µg/mL | inhibition at 10 µM (SARS-CoV-2 PL^pro [5]): 85 ± 3%; IC50 (SARS-CoV-2 PL^pro [5]): 3000 ± 1000 nM
3 | CC(C)C[C@H](NC(=O)[C@H](Cc1c[nH]cn1)NC(=O)[C@H](Cc1ccc(O)cc1)NC(=O)[C@H](CCCNC(=N)N)NC(=O)[C@H](Cc1ccc(O)cc1)NC(=O)[C@H](CCCCN)NC(=O)[C@@H](N)CCCCN)C(=O)N[C@@H](CCCCN)C(=O)N1CCC[C@H]1C(=O)N[C@@H](Cc1ccccc1)C(N)=O [L-monomer] (H-KKYRYHLKPF-NH2) |  |  |  |  | >512 µg/mL | >371 µM | >512 µg/mL |  | >371 µM | >512 µg/mL | >371 µM | >512 µg/mL | >371 µM | >512 µg/mL | >371 µM | >512 µg/mL | >371 µM | >512 µg/mL | >371 µM | >512 µg/mL | inhibition at 10 µM (SARS-CoV-2 PL^pro [5]): 93.3%; IC50 (SARS-CoV-2 PL^pro [5]): 2100 ± 100 nM
4 | I: KKYRYHLKPFKK-NH2 / II: KKYRYHLKPFK / III: KKYRYHLKPF / IV: KKYRYHLKPF (amide I:11-IV:C, I:12-II:C, II:11-III:C) [L-tetramer] | 54% | 98.40 ± 0.00% | Bc | 32 μg/mL and 5 µM | 64 µg/mL | 64 μg/mL and 10 µM | 256 µg/mL | Bs | 32 μg/mL and 5 µM | >128 µg/mL |  | 32 µg/mL | 10 µM and 64 μg/mL | 128 µg/mL | 32 μg/mL and 5 µM | >128 µg/mL | 16 µg/mL | 32 µg/mL | 5 µM and 32 μg/mL | 64 µg/mL | IC50 (SARS-CoV-2 PL^pro [1]): 1400 ± 20 nM; Act (antibacterial activity) (S. aureus ATCC 25923; MBC/MIC ratio >4 suggests bacteriostatic): Bc; Act (antibacterial activity) (E. faecium ATCC 700221): Bc; Act (antibacterial activity) (E. faecalis ATCC 29212): Bc; Act (antibacterial activity) (E. coli ATCC 25922): Bs; Act (antibacterial activity) [3]: Bc; Act (antibacterial activity) (A. baumannii ATCC 19606): Bc
